Reference: ChEMBL document CHEMBL2010698 (J Med Chem, 2012)

Tests used:
Cholinesterase [1] = target: T1, Cholinesterase (Homo sapiens, UniProt P06276); test: Ratio of (+/-)-huprine Y IC50 to compound IC50 for human serum BChE
in vitro = details: pig, PAMPA
Description: Permeability across porcine brain lipid layer after 240 mins by PAMPA-BBB assay

Cholinesterase [2] = target: T1, Cholinesterase
Description: Inhibition of human serum BChE using butyrylthiocholine iodide as substrate preincubated for 20 mins prior substrate addition measured after 5 mins by spectrophotometry

Beta-secretase 1 [3] = target: T2, Beta-secretase 1 (Homo sapiens, UniProt P56817); test: Inhibition of human recombinant BACE-1 using M-2420 as substrate preincubated for 1 hr prior substrate addition measured after 15 mins by spectrofluorimetry
Acetylcholinesterase [4] = target: T3, Acetylcholinesterase (Homo sapiens, UniProt P22303)
Description: Inhibition of human recombinant AChE using acetylthiocholine iodide as substrate preincubated for 20 mins prior substrate addition measured after 5 mins by spectrophotometry

Mus musculus = species on record: Mus musculus; test: animal or person; details: OF1, Brain, ip, 20 min, read-out: INH
Acetylcholinesterase [5] = target: T4, Acetylcholinesterase (Bos taurus, UniProt P23795); test: Inhibition of bovine AChE-induced coumarin-tagged PrP106-126 aggregation after 48 hrs by fluorescence microscopy
T4 sequence (P23795 whole entry): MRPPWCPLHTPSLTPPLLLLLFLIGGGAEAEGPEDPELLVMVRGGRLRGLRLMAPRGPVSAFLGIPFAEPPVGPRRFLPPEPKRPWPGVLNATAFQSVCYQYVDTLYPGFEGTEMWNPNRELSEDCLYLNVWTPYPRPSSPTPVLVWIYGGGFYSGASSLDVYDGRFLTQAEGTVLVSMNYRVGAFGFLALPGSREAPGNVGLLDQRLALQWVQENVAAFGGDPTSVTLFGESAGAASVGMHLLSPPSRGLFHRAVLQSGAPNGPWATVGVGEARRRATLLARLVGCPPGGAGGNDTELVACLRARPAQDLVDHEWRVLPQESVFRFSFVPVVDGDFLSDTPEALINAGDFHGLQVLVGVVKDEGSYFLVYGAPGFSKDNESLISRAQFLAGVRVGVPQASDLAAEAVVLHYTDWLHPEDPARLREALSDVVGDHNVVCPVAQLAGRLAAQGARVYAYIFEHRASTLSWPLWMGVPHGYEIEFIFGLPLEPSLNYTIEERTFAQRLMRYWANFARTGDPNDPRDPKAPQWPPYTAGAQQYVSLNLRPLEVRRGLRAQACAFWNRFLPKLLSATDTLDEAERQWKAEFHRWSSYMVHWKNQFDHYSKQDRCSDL

Acetylcholinesterase [6] = target: T3, Acetylcholinesterase; test: Inhibition of human recombinant AChE-induced Abeta1-40 aggregation by thioflavin T fluorescence method
[7] = Inhibition of self-induced Abeta1-42 aggregation after 24 hrs by thioflavin T fluorescence method
Beta-secretase 1 [8] = target: T2, Beta-secretase 1; details: 5 uM
Description: Inhibition of human recombinant BACE-1 using panvera peptide as substrate at 5 uM preincubated for 60 mins prior substrate addition measured after 60 mins by spectrofluorimetry

Acetylcholinesterase [9] = target: T3, Acetylcholinesterase; remark: listed apart in the source
Description: Competitive inhibition of human recombinant AChE by Lineweaver-Burk plot analysis

T3 sequence (P22303 whole entry): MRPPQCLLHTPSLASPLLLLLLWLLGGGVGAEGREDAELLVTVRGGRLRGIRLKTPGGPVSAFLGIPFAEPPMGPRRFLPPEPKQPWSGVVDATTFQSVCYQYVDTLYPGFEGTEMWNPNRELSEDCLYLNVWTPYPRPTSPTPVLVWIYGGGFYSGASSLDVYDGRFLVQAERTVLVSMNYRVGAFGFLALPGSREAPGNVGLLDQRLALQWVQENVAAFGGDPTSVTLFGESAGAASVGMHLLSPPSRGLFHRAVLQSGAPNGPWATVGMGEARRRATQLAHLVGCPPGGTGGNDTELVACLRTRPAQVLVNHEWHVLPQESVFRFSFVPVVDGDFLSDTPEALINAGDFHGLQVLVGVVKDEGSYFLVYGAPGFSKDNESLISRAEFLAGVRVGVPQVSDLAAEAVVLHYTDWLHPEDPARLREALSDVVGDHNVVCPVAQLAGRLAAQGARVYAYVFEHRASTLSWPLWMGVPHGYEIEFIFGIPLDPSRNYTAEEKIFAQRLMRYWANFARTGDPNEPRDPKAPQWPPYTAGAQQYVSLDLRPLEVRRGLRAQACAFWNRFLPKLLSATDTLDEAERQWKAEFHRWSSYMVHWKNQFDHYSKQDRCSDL
T1 sequence (P06276 whole entry): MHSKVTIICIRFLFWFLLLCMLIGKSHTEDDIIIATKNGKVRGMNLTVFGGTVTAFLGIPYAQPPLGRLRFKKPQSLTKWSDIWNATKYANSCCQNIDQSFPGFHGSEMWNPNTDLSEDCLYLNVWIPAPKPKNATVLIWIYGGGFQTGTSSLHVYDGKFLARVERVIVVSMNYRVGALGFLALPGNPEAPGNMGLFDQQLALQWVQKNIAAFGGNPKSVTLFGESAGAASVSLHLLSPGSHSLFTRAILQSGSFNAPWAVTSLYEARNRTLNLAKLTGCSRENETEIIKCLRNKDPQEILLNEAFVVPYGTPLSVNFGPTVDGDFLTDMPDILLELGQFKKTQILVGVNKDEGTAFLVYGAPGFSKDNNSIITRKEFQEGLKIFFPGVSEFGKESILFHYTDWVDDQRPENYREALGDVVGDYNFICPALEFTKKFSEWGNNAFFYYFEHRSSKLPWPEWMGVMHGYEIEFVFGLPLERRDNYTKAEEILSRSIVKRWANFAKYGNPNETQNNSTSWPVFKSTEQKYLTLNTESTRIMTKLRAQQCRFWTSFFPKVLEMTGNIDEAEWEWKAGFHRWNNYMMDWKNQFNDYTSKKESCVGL
T2 sequence (P56817 whole entry): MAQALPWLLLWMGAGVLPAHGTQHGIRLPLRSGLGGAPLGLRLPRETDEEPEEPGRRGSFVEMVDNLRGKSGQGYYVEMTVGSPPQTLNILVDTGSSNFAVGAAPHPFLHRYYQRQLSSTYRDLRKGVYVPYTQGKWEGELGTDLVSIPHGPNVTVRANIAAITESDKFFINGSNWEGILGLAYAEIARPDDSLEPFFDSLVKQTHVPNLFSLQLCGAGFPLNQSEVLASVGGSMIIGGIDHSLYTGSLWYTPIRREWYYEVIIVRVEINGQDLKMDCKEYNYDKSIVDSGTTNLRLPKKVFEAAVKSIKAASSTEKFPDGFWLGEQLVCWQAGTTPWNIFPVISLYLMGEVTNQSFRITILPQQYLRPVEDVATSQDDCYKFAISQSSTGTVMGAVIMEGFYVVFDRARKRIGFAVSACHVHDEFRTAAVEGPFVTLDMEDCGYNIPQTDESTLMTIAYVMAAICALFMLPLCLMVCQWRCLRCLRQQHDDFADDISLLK

Structure (SMILES) | Papp at 4 h (in vitro) | IC50 (Cholinesterase [2]) | IC50 (Beta-secretase 1 [3]) | IC50 (Acetylcholinesterase [4]) | further results
CC1=CC2Cc3nc4cc(Cl)ccc4c(NCCCCCCCCCCNc4c5c(nc6ccccc46)CCCC5)c3C(C1)C2.Cl.Cl.Cl (racemic) | 163 nm/s | 0.0266 µM | 7.3 µM | 0.00419 µM | Ratio IC50 (Cholinesterase [1]): 6
CC1=CC2Cc3nc4cc(Cl)ccc4c(NCCCCCCCCNc4c5c(nc6ccccc46)CCCC5)c3C(C1)C2.Cl (racemic) | 102 nm/s | 0.0742 µM | – | 0.00138 µM | inhibition in vivo at 10 µmol/kg (Mus musculus): 30%; IC50 (Acetylcholinesterase [5]): 0.0687 µM; IC50 (Acetylcholinesterase [6]): 61.3 µM; IC50 [7]: ≤ 10 µM
CC1=CC2Cc3nc4cc(Cl)ccc4c(NCCCCCCCCCCNc4c5c(nc6cc(Cl)ccc46)CCCC5)c3C(C1)C2.Cl.Cl.Cl.Cl (racemic) | 291 nm/s | 0.0766 µM | 6.6 µM | 0.00909 µM | –
CC1=CC2Cc3nc4cc(Cl)ccc4c(NCCCCCCCCNc4c5c(nc6cc(Cl)ccc46)CCCC5)c3C(C1)C2.Cl (racemic) | 211 nm/s | 0.0351 µM | 4.9 µM | 0.00132 µM | inhibition in vivo at 10 µmol/kg (Mus musculus): 28.5%; IC50 (Acetylcholinesterase [5]): 0.263 µM
CC1=C[C@@H]2Cc3nc4cc(Cl)ccc4c(N)c3[C@H](C1)C2 | – | – | – | – | inhibition (Beta-secretase 1 [8]): 14%
CC1=C[C@H]2Cc3nc4cc(Cl)ccc4c(NCCCCCCCNc4c5c(nc6ccccc46)CCCC5)c3[C@@H](C1)C2 | – | 0.139 µM | – | 0.00684 µM | IC50 [7]: ≤ 10 µM
CC1=CC2Cc3nc4cc(Cl)ccc4c(NCCCN(C)CCCNc4c5c(nc6ccccc46)CCCC5)c3C(C1)C2.Cl (racemic) | 114 nm/s | 0.0442 µM | – | 0.00042 µM | –
CC1=CC2Cc3nc4cc(Cl)ccc4c(NCCCCCCNc4c5c(nc6cc(Cl)ccc46)CCCC5)c3C(C1)C2.Cl (racemic) | 120 nm/s | 0.0752 µM | – | 0.00074 µM | –
CC1=CC2Cc3nc4cc(Cl)ccc4c(NCCCCCCCCCNc4c5c(nc6ccccc46)CCCC5)c3C(C1)C2.Cl.Cl.Cl (racemic) | 60 nm/s | – | – | – | –
CC1=C[C@H]2Cc3nc4cc(Cl)ccc4c(N)c3[C@@H](C1)C2 | – | – | – | – | inhibition (Beta-secretase 1 [8]): 13.6%
CC1=C[C@@H]2Cc3nc4cc(Cl)ccc4c(NCCCCCCCNc4c5c(nc6cc(Cl)ccc46)CCCC5)c3[C@H](C1)C2 | – | 0.0868 µM | 5.7 µM | 0.00204 µM | Kic (Acetylcholinesterase [9]): 1.51 nM
CC1=C[C@H]2Cc3nc4cc(Cl)ccc4c(NCCCCCCCNc4c5c(nc6cc(Cl)ccc46)CCCC5)c3[C@@H](C1)C2 | – | 0.0474 µM | 5.9 µM | 0.0115 µM | –
CC1=CC2Cc3nc4cc(Cl)ccc4c(N)c3C(C1)C2 (racemic) | – | 0.175 µM | – | – | –
CC1=CC2Cc3nc4cc(Cl)ccc4c(NCCCN(C)CCCNc4c5c(nc6cc(Cl)ccc46)CCCC5)c3C(C1)C2.Cl (racemic) | 70 nm/s | 0.0513 µM | – | 0.00031 µM | –
CC1=CC2Cc3nc4cc(Cl)ccc4c(NCCCCCCCNc4c5c(nc6ccccc46)CCCC5)c3C(C1)C2.Cl.Cl.Cl (racemic) | 125 nm/s | 0.0871 µM | – | 0.00189 µM | IC50 [7]: ≤ 10 µM
CC1=CC2Cc3nc4cc(Cl)ccc4c(NCCCCCCCCCNc4c5c(nc6cc(Cl)ccc46)CCCC5)c3C(C1)C2.Cl.Cl.Cl.Cl (racemic) | 156 nm/s | 0.0272 µM | 5.8 µM | 0.00326 µM | Ratio IC50 (Cholinesterase [1]): 6
CC1=CC2Cc3nc4cc(Cl)ccc4c(NCCCCCCCNc4c5c(nc6cc(Cl)ccc46)CCCC5)c3C(C1)C2.Cl.Cl.Cl.Cl (racemic) | 209 nm/s | 0.0733 µM | – | 0.00402 µM | –
CC1=C[C@@H]2Cc3nc4cc(Cl)ccc4c(NCCCCCCCNc4c5c(nc6ccccc46)CCCC5)c3[C@H](C1)C2 | – | 0.133 µM | – | 0.00133 µM | IC50 [7]: ≤ 10 µM
CC1=CC2Cc3nc4cc(Cl)ccc4c(NCCCCCCNc4c5c(nc6ccccc46)CCCC5)c3C(C1)C2.Cl (racemic) | 107 nm/s | 0.0246 µM | – | 0.00089 µM | Ratio IC50 (Cholinesterase [1]): 6
